Assay results as given in ChEMBL document CHEMBL1201862, “PubChem BioAssay data set” (2004).
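Each compound was tested at five concentrations against cells in 96-well plates for 48 hours. The concentration for 50% growth inhibition is given as GI50.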 Activity calls are given as the source filed them. Rule as the data show it: active = GI50 up to about 1.1 µM and inactive = higher.

Experiments:
Assay in all cases: NCI anticancer screen, dose series, 48 h
OVCAR-5 = system: OVCAR-5
UACC-62 = system: UACC-62
SF-268 = system: SF-268
MOLT-4 = system: MOLT-4
NCI-H23 = system: NCI-H23
HT-29 = system: HT-29
NCI-H460 = system: NCI-H460
786-0 = system: 786-0
UACC-257 = system: UACC-257
TK-10 = system: TK-10
SN12C = system: SN12C
SNB-75 = system: SNB-75
T47D = system: T47D
M14 = system: M14
LOX IMVI = system: LOX IMVI
NCI-H522 = system: NCI-H522
OVCAR-4 = system: OVCAR-4
Hs-578T = system: Hs-578T
ACHN = system: ACHN
UO-31 = system: UO-31

Compound | GI50 (OVCAR-5) | GI50 (UACC-62) | GI50 (SF-268) | GI50 (MOLT-4) | GI50 (NCI-H23) | GI50 (HT-29) | GI50 (NCI-H460) | GI50 (786-0) | GI50 (UACC-257) | GI50 (TK-10) | GI50 (SN12C) | GI50 (SNB-75) | GI50 (T47D) | GI50 (M14) | GI50 (LOX IMVI) | GI50 (NCI-H522) | GI50 (OVCAR-4) | GI50 (Hs-578T) | GI50 (ACHN) | GI50 (UO-31)
CC(C)(C)C(O)CC(O)(C(F)(F)F)C(F)(F)F (stereo not given) | > 100 µM (inactive) | > 100 µM (inactive) | > 100 µM (inactive) | > 100 µM (inactive) | > 100 µM (inactive) | > 100 µM (inactive) | > 100 µM (inactive) | > 100 µM (inactive) | > 100 µM (inactive) | > 100 µM (inactive) | > 100 µM (inactive) | 56.9 µM (inactive) | > 100 µM (inactive) | > 100 µM (inactive) | > 100 µM (inactive) | > 100 µM (inactive) | > 100 µM (inactive) | > 100 µM (inactive) | > 100 µM (inactive) | > 100 µM (inactive)
CO[C@@H]1C=C[C@@]23c4cc5c(cc4C(O)N(CC2O)C3C1)OCO5 (stereo not given in full) | 4.91 µM (inactive) | 3.13 µM (inactive) | 7.36 µM (inactive) | 2.82 µM (inactive) | 4.29 µM (inactive) | 3 µM (inactive) | 2.84 µM (inactive) | 3.21 µM (inactive) | 1.86 µM (inactive) | 4.19 µM (inactive) | 4.15 µM (inactive) | 2.82 µM (inactive) | 3.35 µM (inactive) | 3.14 µM (inactive) | 3.52 µM (inactive) | 3.66 µM (inactive) | 2.8 µM (inactive) | 22.6 µM (inactive) | 3.33 µM (inactive) | 3.68 µM (inactive)
CN(C)CCn1c(=O)c2ccc(NCCNCCO)c3c(=O)c4ccccc4n(c1=O)c23 | 0.298 µM (active) | 0.0467 µM (active) | 0.0471 µM (active) | < 0.01 µM (active) | 0.0342 µM (active) | 0.0853 µM (active) | < 0.01 µM (active) | 0.0149 µM (active) | 0.368 µM (active) | 0.764 µM (active) | 0.0206 µM (active) | 0.0445 µM (active) | 0.129 µM (active) | 0.14 µM (active) | 0.0341 µM (active) | 0.0581 µM (active) | 0.514 µM (active) | 0.23 µM (active) | 0.0116 µM (active) | 0.126 µM (active)
